Results from ChEMBL document CHEMBL1201862, “PubChem BioAssay data set” (2004).
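48-hour exposure; five concentrations; linearly interpolated endpoints. GI50 = concentration required for 50% inhibition of growth.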 Activity calls are given as the source filed them. No stated cut-off is given here; in the data, active = GI50 up to about 1.1 µM and inactive = higher.

Columns and labels:
Experiment in all cases: NCI-60 cell line screen, 48 h
A549 = system: A549
CCRF-CEM = system: CCRF-CEM
EKVX = system: EKVX
HL-60 = system: HL-60
HOP-62 = system: HOP-62
HT-29 = system: HT-29
Hs-578T = system: Hs-578T
LOX IMVI = system: LOX IMVI
MDA-MB-231 = system: MDA-MB-231
MDA-N = system: MDA-N
MOLT-4 = system: MOLT-4
Malme-3M = system: Malme-3M
NCI-H460 = system: NCI-H460
OVCAR-8 = system: OVCAR-8
SF-268 = system: SF-268
SN12C = system: SN12C
SR = system: SR
SW-620 = system: SW-620
T47D = system: T47D
UO-31 = system: UO-31

| SMILES | GI50 (A549) | GI50 (CCRF-CEM) | GI50 (EKVX) | GI50 (HL-60) | GI50 (HOP-62) | GI50 (HT-29) | GI50 (Hs-578T) | GI50 (LOX IMVI) | GI50 (MDA-MB-231) | GI50 (MDA-N) | GI50 (MOLT-4) | GI50 (Malme-3M) | GI50 (NCI-H460) | GI50 (OVCAR-8) | GI50 (SF-268) | GI50 (SN12C) | GI50 (SR) | GI50 (SW-620) | GI50 (T47D) | GI50 (UO-31) |
| --- | --- | --- | --- | --- | --- | --- | --- | --- | --- | --- | --- | --- | --- | --- | --- | --- | --- | --- | --- | --- |
| O=[N+]([O-])/C(C(Cl)=C(Cl)Cl)=C(/Cl)Sc1ccccc1 | 3.6 µM (inactive) | 0.185 µM (active) | 15.6 µM (inactive) | 0.139 µM (active) | 3.54 µM (inactive) | 2.24 µM (inactive) | 3.15 µM (inactive) | 1.87 µM (inactive) | 1.86 µM (inactive) | 1.59 µM (inactive) | 0.361 µM (active) | 1.6 µM (inactive) | 17.1 µM (inactive) | 0.255 µM (active) | 2.29 µM (inactive) | 1.81 µM (inactive) | 0.378 µM (active) | 0.307 µM (active) | 3.03 µM (inactive) | 1.42 µM (inactive) |
| CCc1ccccc1NNc1cc(=O)[nH]c(=O)[nH]1 | 24.5 µM (inactive) | 26.5 µM (inactive) | 17.5 µM (inactive) | 26.7 µM (inactive) | 19.3 µM (inactive) | 20.8 µM (inactive) | 28.6 µM (inactive) | 14 µM (inactive) | 17.5 µM (inactive) | 17.9 µM (inactive) | 26.7 µM (inactive) | > 10 µM (inactive) | 22.9 µM (inactive) | 23.4 µM (inactive) | > 10 µM (inactive) | 18.8 µM (inactive) | 30.5 µM (inactive) | 18.6 µM (inactive) | 17.9 µM (inactive) | 17.2 µM (inactive) |
| COC(=O)C1OC(O[C@H]2CC[C@]3(C)[C@H]4CC=C5[C@@H]6CC(C)(C)CC[C@]6(C(=O)OC)[C@H](O)C[C@@]5(C)[C@]4(C)CC[C@H]3C2(C)C)C(O)C(O)C1O (stereo not given in full) | 4.08 µM (inactive) | 3.1 µM (inactive) | 7.96 µM (inactive) | 3.37 µM (inactive) | 17 µM (inactive) | 3.21 µM (inactive) | 13.8 µM (inactive) | 3.18 µM (inactive) | 9.33 µM (inactive) | 12.2 µM (inactive) | 3.61 µM (inactive) | 12.8 µM (inactive) | 6.49 µM (inactive) | 13.2 µM (inactive) | 13.2 µM (inactive) | 12.9 µM (inactive) | 3.42 µM (inactive) | 12.4 µM (inactive) | 12.6 µM (inactive) | 14 µM (inactive) |
| CC(=O)NC1C(OCc2ccccc2)OC(CO)C(O)C1OC(C)C(=O)NC(C(=O)NC(CCC(=O)Nc1ccc2c(c1)CN1C(=O)c3ccccc3C1=N2)C(N)=O)C(C)C (stereo not given) | > 100 µM (inactive) | > 100 µM (inactive) | > 100 µM (inactive) | > 100 µM (inactive) | > 100 µM (inactive) | > 100 µM (inactive) | > 100 µM (inactive) | > 100 µM (inactive) | > 100 µM (inactive) | > 100 µM (inactive) | > 100 µM (inactive) | > 100 µM (inactive) | > 100 µM (inactive) | > 100 µM (inactive) | > 100 µM (inactive) | > 100 µM (inactive) | > 100 µM (inactive) | > 100 µM (inactive) | > 100 µM (inactive) | > 100 µM (inactive) |
| C/C1=C\[C@H](C)C[C@H](C)OC(=O)C[C@H](c2ccc(O)cc2)NC(=O)[C@@H](Cc2c(Br)[nH]c3ccccc23)N(C)C(=O)[C@H](C)NC(=O)[C@@H](C)C1 [JASPAMIDE] | 0.172 µM (active) | 0.0209 µM (active) | 0.275 µM (active) | 0.132 µM (active) | 0.329 µM (active) | 0.173 µM (active) | 0.0611 µM (active) | 0.122 µM (active) | 0.0287 µM (active) | 0.0834 µM (active) | 0.682 µM (active) | 0.148 µM (active) | 0.233 µM (active) | 0.381 µM (active) | 0.139 µM (active) | 0.361 µM (active) | 0.0578 µM (active) | 0.152 µM (active) | 0.0512 µM (active) | 0.192 µM (active) |
